The source of these data is patent EP2033655B1 (priority 2007, dated 2009).

pIC50: −log10 of the molar value. Side chains are listed from the residue outwards. Peptide text beside a SMILES is read from it. * marks the point of attachment. X1 = NCCCC[C@H](N)CN1CCC[C@H]1C(=O)* Where only a bound is given, the exact number is not on record here.

The target in the assay is T1, cell-surface expressed nucleolin (Homo sapiens, UniProt P19338).
T1 construct: endogenous in cells; host or cells: HeLa P4 cells
The assay can be described thus: cell-based.

One may read the pIC50 as the IC50 on a negative log10 scale, so that one unit is a factor of ten. A lower pIC50 goes with a high IC50.

T1 sequence (P19338 whole entry): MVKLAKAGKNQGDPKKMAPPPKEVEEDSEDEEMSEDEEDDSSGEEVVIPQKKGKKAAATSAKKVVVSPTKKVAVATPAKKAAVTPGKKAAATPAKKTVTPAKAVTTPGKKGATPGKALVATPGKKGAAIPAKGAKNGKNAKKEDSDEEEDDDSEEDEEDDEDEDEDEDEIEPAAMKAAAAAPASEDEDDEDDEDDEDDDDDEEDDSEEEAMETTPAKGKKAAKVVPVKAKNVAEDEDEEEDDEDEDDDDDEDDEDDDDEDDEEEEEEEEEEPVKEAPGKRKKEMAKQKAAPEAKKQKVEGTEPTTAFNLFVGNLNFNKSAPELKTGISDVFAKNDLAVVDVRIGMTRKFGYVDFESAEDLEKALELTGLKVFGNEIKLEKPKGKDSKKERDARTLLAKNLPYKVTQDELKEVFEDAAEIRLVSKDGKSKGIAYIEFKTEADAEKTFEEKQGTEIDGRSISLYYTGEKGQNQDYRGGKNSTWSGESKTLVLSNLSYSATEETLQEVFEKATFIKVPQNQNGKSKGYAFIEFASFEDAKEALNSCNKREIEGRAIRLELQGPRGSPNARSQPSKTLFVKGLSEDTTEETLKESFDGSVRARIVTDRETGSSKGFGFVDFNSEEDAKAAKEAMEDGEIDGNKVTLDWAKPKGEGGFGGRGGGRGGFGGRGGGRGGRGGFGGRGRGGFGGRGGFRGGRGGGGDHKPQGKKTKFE

In the case of `CC(=O)N[C@@H](CCCCNC(=O)[C@H](CCCNC(=N)N)NC(=O)[C@@H]1CCCN1C[C@@H](N)CCCCN)C(=O)N[C@@H](C)C(=O)N[C@@H](CCCCNC(=O)[C@H](CCCNC(=N)N)NC(=O)[C@@H]1CCCN1C[C@@H](N)CCCCN)C(=O)N1CCC[C@H]1C(=O)NCC(=O)N[C@@H](CCCCNC(=O)[C@H](CCCNC(=N)N)NC(=O)[C@@H]1CCCN1C[C@@H](N)CCCCN)C(=O)N[C@@H](C)C(=O)N[C@@H](CCCCNC(=O)[C@H](CCCNC(=N)N)NC(=O)[C@@H]1CCCN1C[C@@H](N)CCCCN)C(=O)N1CCC[C@H]1C(=O)NCC(=O)N[C@@H](CCCCNC(=O)[C@H](CCCNC(=N)N)NC(=O)[C@@H]1CCCN1C[C@@H](N)CCCCN)C(=O)N[C@@H](C)C(=O)N[C@@H](CCCCNC(=O)[C@H](CCCNC(=N)N)NC(=O)[C@@H]1CCCN1C[C@@H](N)CCCCN)C(=O)N1CCC[C@H]1C(=O)NCC(N)=O` [Nucant 7] (Ac-K([Arg-X1])AK([Arg-X1])PGK([Arg-X1])AK([Arg-X1])PGK([Arg-X1])AK([Arg-X1])PG-NH2), the pIC50 is above 7.00. Also, the inhibition at 0.8 µM (HeLaP4, read-out: inhibitory activity) is above 95%.
